Data as given in patent publication US6919306B2, “Method of skin care” (Yaizu Suisankagaku Industry Co. Ltd., priority 1999, dated 2005).
Marks after values point to notes of the source that are not given here.

Assays:
Wister rats (SPF) = experiment: Acute toxic test of NAG; format: in vivo; settings: rat
Protocol: To each of five males and five females of Wister rats (SPF), NAG was given by a single oral administration in an amount of 5,000 mg per kg of body weight. After the administration, these rats were bred for 14 days and observed, and no death was recognized. It was also recognized that the 50% lethal dose (LD50) to the rats was at least 5,000 mg per kg of body weight.

skin surface acidity = experiment: Skin acidity (pH) by PH 900; format: in vivo, human; settings: NAG 1,000 mg/day oral
Protocol: (§1) To 22 females usually having a tendency of xeroderma and rough skin (average age: 25.5±10.7), a double blind long-term ingestion study was carried out in the following manners provided that a […] were given to a control group.
(§2) NAG-containing tablets-administered group (NAG group, n=11): Tablets prepared similarly as in Example 1 as described below (NAG amount: 200 mg/tablet), were ingested at a rate of 5 tablets/day (NAG 1,000 mg/day, as a daily dose).
(§3) The ingestion period was 8 weeks in each group. The inspection was in principle carried out just before the start of ingestion, 4 weeks after the start of ingestion, and just before the completion of ingestion (8 weeks after the start of ingestion).
The acidity was measured by using PH 900 (manufactured by Courage+Khazaka Electronic Gmbh). In use of this apparatus, an electrode is contacted to a skin surface through an ion-permeable membrane neighboring to a glass membrane and the acidity can be measured without electrochemical invasion. In this connection, the optimum pH of female's skin is about 5.5.
(§4) Measurement sites were 1 cm below the left eye, medial part of left upper arm (3 cm above the elbow), and poll (3 cm below spinous process of neck). With respect to the oil and fat content, since most subjects were scored at 0 at the left upper arm and the poll, only the site below the left eye was measured from the 2nd inspection.
(§5) In order to keep the environments for the measurements as equal as possible, a room having its internal conditions adjusted to be constant was prepared before the measurements (room temperature: 18 to 20° C., humidity: 45 to 60%), and the subjects were asked to keep in rest in this room for at least 30 minutes. Further, with respect to the makeup at the measurement site, it was in principle prohibited to put on makeup from 60 minutes before the inspection.

[1] = tested on: oil and fat content of skin; experiment: Skin oil and fat content by Sebumeter SM810; format: in vivo, human; settings: for Oil and fat content, Below left eye: NAG 1,000 mg/day oral
Protocol: as §1, §2, §3
The oil and fat content was measured by using Sebumeter SM810 (manufactured by Courage+Khazaka Electronic Gmbh). In use of this apparatus, a special tape which absorbs only the oil and fat content is attached to the measurement site for 30 seconds and the oil and fat content is measured by the change of light transmittance of the tape. This apparatus is known not to be affected by humidity, etc.
as §4, §5

[2] = tested on: females having a tendency of xeroderma and rough skin; experiment: Dermatologic examination and doctor's questions, double blind long-term ingestion study; format: in vivo, human; settings: for Face, Cosmetic dermatitis, average score / Face, Spread of cosmetics, average score / Whole body, Desquamation, average score / Whole body, Erosion, average score / Whole body, Flushing, average score / Whole body, Papula, average score / Whole body, Pruritus, average score / Whole body, Vesicle, average score / Face, Dessication, average score / Face, Flushing, average score / General observation, average score / Whole body, Dessication, average score: NAG 1,000 mg/day oral
Protocol: as §1, §2
Placebo-administered group (Placebo group, n=11): Tablets prepared similarly provided that lactose was used instead of NAG, were ingested at a rate of 5 tablets/day.
as §3
In the observation of whole body, 4 ranks evaluation (0: no symptom, 1: slight, 2: medium, 3: severe) was conducted with respect to pruritus, desiccation, flushing, erosion, desquamation, papula, vesicle and tumefaction. In the observation of face, 4 ranks evaluation was similarly conducted with respect to cosmetic dermatitis, desiccation, flushing and spread of cosmetics. Further, amelioration of general symptom including the observations of the whole body and face, was evaluated as a general observation. These evaluations were conducted by a plurality of doctors designated by Japan Dermatologic Science Society. The results are shown in Table 3 (average value of each score of each group).

[3] = tested on: moisture content of epidermis; experiment: Skin moisture content by Corneometer CM825; format: in vivo, human; settings: for Moisture content, Left upper arm / Moisture content, Poll / Moisture content, Below left eye: NAG 1,000 mg/day oral
Protocol: as §1, §2, §3
The moisture content was measured by using Corneometer CM825 (manufactured by Courage+Khazaka Electronic Gmbh). This apparatus measures the moisture content of epidermis by measuring the electrostatic capacity via corneal layer, and is known to be less in error as compared with a conventional impedance method or infrared spectrophotometric method.
as §4, §5

[4] = Heat treatment stability (coloration or decomposition); format: physicochemical; settings: pH of 2 to 8 at 100° C. for 1 hour
From the text: (§6) In the present invention, as a carrier for the skin care agent, foods such as confectioneries, powdered soups, dairy products and beverages, may, for example, be mentioned. As such foods, specifically, gum, candies, tabletted confectioneries, chocolate, jelly, cookies, snacks, corn potage soup, consomme soup, milk, pudding, yogurt, ice cream, lactic acid beverages, alcohol beverages, vitamin beverages, mineral beverages, coffee beverages, near water, nutrition drinks, and the like, may be mentioned.

[5] = Solubility of natural-type NAG in water; format: physicochemical; settings: water of 25° C.
From the text: as §6

[6] = NAG group, 1,000 mg/day oral, 8 weeks
[7] = after 4 weeks, score 0-3, p < 0.05
[8] = after 8 weeks, score 0-3, p < 0.05

## CC(=O)N[C@H]1C(O)O[C@H](CO)[C@@H](O)[C@@H]1O (stereo partly drawn) [NAG, N-acetylglucosamine]
Wister rats (SPF); both, Wister, in vivo, po, 14 days
  50% lethal dose (LD50): at least 5,000 mg per kg of body weight
Wister rats (SPF); orally administered 5 g per kg of body weight
  safety on oral administration: safety is confirmed
Skin surface acidity; after 4 weeks
  Acidity (pH), Below left eye: 5.7 ± 0.5 pH
  Acidity (pH), Left upper arm: 5.6 ± 0.3 pH
  Acidity (pH), Poll: 5.4 ± 0.3 pH
Skin surface acidity; after 8 weeks
  Acidity (pH), Below left eye: 5.8 ± 0.4 pH
  Acidity (pH), Left upper arm: 5.7 ± 0.4 pH
  Acidity (pH), Poll: 5.3 ± 0.4 pH
Skin surface acidity; before ingestion
  Acidity (pH), Left upper arm: 5.5 ± 0.3 pH
  Acidity (pH), Poll: 5.7 ± 1.1 pH
Skin surface acidity; before ingestion, optimum pH about 5.5
  Acidity (pH), Below left eye: 6.0 ± 1.0 pH
[1]; after 4 weeks
  Oil and fat content, Below left eye: 53.0 ± 29.2
[1]; after 8 weeks, p < 0.05
  Oil and fat content, Below left eye: 40.8 ± 18.7
[1]; before ingestion
  Oil and fat content, Below left eye: 63.8 ± 42.3
[1]; [6]
  oil and fat content, change: significant decrease
[2]; after 4 weeks, score 0-3
  Face, Cosmetic dermatitis, average score: 1.00
  Face, Spread of cosmetics, average score: 1.33
  Whole body, Desquamation, average score: 1.33
  Whole body, Erosion, average score: 1.00
  Whole body, Flushing, average score: 0.80
  Whole body, Papula, average score: 1.50
  Whole body, Pruritus, average score: 0.90
  Whole body, Vesicle, average score: 2.00
[2]; after 4 weeks, score 0-3, p < 0.01
  Face, Dessication, average score: 1.18**
[2]; [7]
  Face, Flushing, average score: 1.10*
  General observation, average score: 1.27*
  Whole body, Dessication, average score: 1.36*
[2]; after 8 weeks, score 0-3
  Face, Cosmetic dermatitis, average score: 1.33
  Whole body, Desquamation, average score: 1.00
  Whole body, Erosion, average score: 0.00
  Whole body, Flushing, average score: 0.40
  Whole body, Papula, average score: 1.50
  Whole body, Pruritus, average score: 0.60
  Whole body, Vesicle, average score: 2.00
[2]; [8]
  Face, Dessication, average score: 1.00*
  Face, Flushing, average score: 1.10*
  Face, Spread of cosmetics, average score: 0.83*
  General observation, average score: 1.09*
  Whole body, Dessication, average score: 1.00*
[2]; before ingestion, score 0-3
  Face, Dessication, average score: 2.00
  Face, Flushing, average score: 1.80
  Face, Spread of cosmetics, average score: 1.83
  General observation, average score: 1.82
  Whole body, Desquamation, average score: 1.33
  Whole body, Dessication, average score: 2.09
  Whole body, Erosion, average score: 2.00
  Whole body, Flushing, average score: 1.40
  Whole body, Papula, average score: 1.00
  Whole body, Pruritus, average score: 1.40
  Whole body, Vesicle, average score: 1.00
[2]; before ingestion, score 0 no symptom to 3 severe
  Face, Cosmetic dermatitis, average score: 1.00
[2]; NAG group, 1,000 mg/day oral, 8 weeks, also significant in placebo group
  symptom of whole body: "dessication": significant improvements
[2]; NAG group, 1,000 mg/day oral, 8 weeks, placebo no significance
  symptoms of face: "dessication", "flushing" and "spread of cosmetics": significant improvements
[2]; NAG group, 1,000 mg/day oral, 8 weeks, placebo no significant improvement
  general observation: significant improvements
[3]; after 4 weeks
  Moisture content, Left upper arm: 38.7 ± 5.8
  Moisture content, Poll: 51.9 ± 5.4
[3]; after 4 weeks, p < 0.05
  Moisture content, Below left eye: 58.8 ± 14.2
[3]; after 8 weeks
  Moisture content, Left upper arm: 36.2 ± 6.8
  Moisture content, Poll: 52.1 ± 10.9
[3]; after 8 weeks, p < 0.01
  Moisture content, Below left eye: 56.2 ± 8.4
[3]; before ingestion
  Moisture content, Below left eye: 48.0 ± 8.8
  Moisture content, Left upper arm: 37.8 ± 7.8
  Moisture content, Poll: 51.3 ± 5.6
[3]; [6]
  moisture content at the site below the left eye, change: significant increase
[4]
  coloration or decomposition on heat treatment: not to show coloration or decomposition
[5]
  solubility in water: 32 % by weight
